In patent publication US20220362249A1, “METHODS FOR TREATING […]” (PTC Therapeutics MP, Inc., priority 2019, published 2022):
Several values for one entry are separate records, joined by “and”; a condition that tells them apart may be missing. Equal entries are not always repeated.

Key:
[1] = Comparison of adverse events in fed and fasted subjects; format: in vivo, human; conditions: single dose 10 mg/kg, twelve subjects
Description: Method: Twelve subjects were given a single dose (10 mg/kg) of sepiapterin under fasting conditions and then 7 days later under fed conditions. Standard definitions of adverse events (AE) were used. All-cause AE were those that occurred at any time; treatment-emergent adverse events (TEAE) were those that occurred at or after the time of administration of study treatment. TEAEs related to study drug were based on the opinion of the investigator. Serious AE were defined as life threatening or caused death, hospitalization or prolongation of existing hospitalization, or were a persistent or significant disability/incapacity or a substantial disruption of the ability to conduct normal life functions, or a congenital anomaly/birth defect.

blood Phe = test: Reduction of blood Phe in patients with PKU, randomized crossover of PTC923 vs sapropterin dihydrochloride; format: in vivo, human; conditions: for Proportion of patients achieving blood Phe <360 μmol/L: n of 24; for Mean (SD) blood Phe, At baseline: Day 1 pre-dose; for Least squares mean (SE) change from baseline in blood Phe / Mean (SD) blood Phe, Change / Mean (SD) blood Phe, On treatment: 7 days; for Mean (SD) blood Phe, On treatment: mean of days 3, 5 and 7
Description: Following screening for eligibility, a 7-day run-in period commenced. Patients then received 7 days of once-daily oral treatment with either PTC923 20 mg/kg/day (“low dose”), or PTC923 60 mg/kg/day or sapropterin dihydrochloride, in a random order. PTC923 (formerly CNSA-001) is oral sepiapterin. Each patient was randomized to one of six treatment sequences (FIG. 2). The randomization in six different treatment sequences was intended to minimize carry over effect, treatment period effect, patient fatigue, and natural fluctuations in blood Phe levels. A 7-day washout period separated each active treatment period. Patients were asked to maintain their usual pre-study diet, including consumption of amino acid mixtures if prescribed, and were monitored throughout the study by a metabolic dietician.
Blood samples for measurement of Phe were taken on 7, 5, 3, and 1 days before randomization. During treatment periods, blood was taken pre-dose for day 1 and post-dose for days 3, 5 and 7. During the washout periods, blood was taken for measurement of Phe on days 1, 3, 5, and 7. All samples were taken under fasting conditions or no earlier than 3 hours following a meal and at the same time of day. Blood Phe was measured using a validated LC-MS-MS technique of dried blood sampling via Volumetric Absorptive Microsampling (VAMS®) using Mitra® 4-sampler clamshells, at a central bioanalytical laboratory (Agilex Biolabs Pty Ltd).
The main objective of the study was to assess the efficacy of PTC923 measured as the mean blood Phe change from baseline. The efficacy population consisted of all patients who were randomized and had blood Phe measurements before treatment and at days 3, 5 and 7 of treatment from at least one treatment period. The safety population consisted of all patients who were randomized and who received any dose of study treatment. The sample size calculation was based on an all-comers, placebo-controlled regulatory study of sapropterin with an observed mean decrease in blood Phe of 99 μmol/L and standard deviation of 220 μmol/L, and assumed a true mean decrease in blood Phe of 300 μmol/L with 80% power utilizing a 2-sided α of 0.05.
Response to PTC923 was evaluated by measuring the mean change from baseline in blood Phe (calculated as the mean of measurements at days 3, 5 and 7 of each treatment period). Day 1 pre-dose blood Phe concentrations for each treatment period served as the individual patient specific baseline for that period.
The change from baseline in blood Phe of each treatment period was modelled using a linear mixed model for repeated measures (MMRM). The efficacy model included fixed effects for baseline for each treatment period, treatment group, sequence, period, and a random subject effect within each sequence, with a first order autoregressive AR (1) covariance structure. No unplanned covariates were included.
Pairwise comparisons in changes from baseline in Phe were performed between each PTC923 treatment and sapropterin treatment by calculating the least squares means with Dunnet's method of adjustment for multiple comparisons. The estimated change in blood Phe levels, their standard errors (SE) and associated p-values were calculated for each pairwise comparison. Dunnet's method of adjustment was used to account for the multiple comparisons of the test groups against the control group. This adjustment ensured that the overall Type I error rate under the null hypothesis was maintained despite multiple test groups being compared to the single control group.
The overall mean changes in blood Phe for each treatment were calculated and the standard deviations (SD) were determined.
A prespecified sensitivity analysis excluded treatment periods where baseline Phe was <300 μmol/L and a responder analysis looked at patients with baselines ≥300 μmol/L who responded to sapropterin and/or to PTC923 treatment by ≥20% reduction.

[2] = All subjects (N = 24), 20 mg/kg/day oral
[3] = All subjects (N = 24), 60 mg/kg/day oral
[4] = Subjects with classical PKU (N = 11), 20 mg/kg/day oral
[5] = Subjects with classical PKU (N = 11), 60 mg/kg/day oral
[6] = patients on PTC923 60mg/kg with at least 30% reduction in Phe

## C[C@H](O)C(=O)C1=Nc2c(nc(N)[nH]c2=O)NC1 [sepiapterin, Sepiapterin]
[1]; Fasted
  TEAE: 4
  TEAE related to study drug: 1
  ≥1 AE: 5
[1]; Fed
  TEAE: 1
  TEAE related to study drug: 0
  ≥1 AE: 1
Blood Phe; 20 mg/kg
  Proportion of patients achieving blood Phe <360 μmol/L: 46%
Blood Phe; 60 mg/kg
  Proportion of patients achieving blood Phe <360 μmol/L: 50%
Blood Phe; 11 patients with classical PKU, PTC923 60 mg/kg
  LSM difference in blood Phe change vs. sapropterin dihydrochloride: -148.0 µmol/L
Blood Phe; All subjects (N = 24), 20 mg/kg period
  Mean (SD) blood Phe, At baseline: 694.2 (396.0) μmol/L
Blood Phe; [2]
  Least squares mean (SE) change from baseline in blood Phe: −146.9 (41.8) μmol/L
  Mean (SD) blood Phe, Change: −143.7 (224.8) μmol/L
  Mean (SD) blood Phe, On treatment: 550.4 (433.7) μmol/L
Blood Phe; All subjects (N = 24), 60 mg/kg period
  Mean (SD) blood Phe, At baseline: 727.8 (388.2) μmol/L
Blood Phe; [3]
  Least squares mean (SE) change from baseline in blood Phe: −206.4 (41.8) μmol/L
  Mean (SD) blood Phe, Change: −210.1 (235.8) μmol/L
  Mean (SD) blood Phe, On treatment: 517.7 (411.7) μmol/L
Blood Phe; Day 3, 20 mg/kg
  Least squares mean change from baseline in blood Phe to first Phe measurement (Day 3): -167.5 µmol/L
Blood Phe; Day 3, 60 mg/kg
  Least squares mean change from baseline in blood Phe to first Phe measurement (Day 3): -206.6 µmol/L
Blood Phe; Day 3, PTC923 20 mg/kg, underlying changes in μmol/L
  LSM difference in blood Phe change vs. sapropterin dihydrochloride: −95.2
Blood Phe; Day 3, PTC923 60 mg/kg, underlying changes in μmol/L
  LSM difference in blood Phe change vs. sapropterin dihydrochloride: −131.3
Blood Phe; PTC923 20 mg/kg
  Effect on blood Phe compared with sapropterin dihydrochloride 20 mg/kg (in words): numerically larger
Blood Phe; PTC923 60 mg/kg, p=0.0098
  Reducing blood Phe compared with sapropterin dihydrochloride 20 mg/kg (in words): significantly more effective
Blood Phe; PTC923 (60 mg/kg/day)
  Mean absolute reduction in plasma phenylalanine (FIG. 1): over 200 micromole per liter
Blood Phe; Subjects with classical PKU (N = 11), 20 mg/kg period
  Mean (SD) blood Phe, At baseline: 944.6 (354.6) μmol/L
Blood Phe; [4]
  Mean (SD) blood Phe, Change: −75.5 (201.8) μmol/L
  Mean (SD) blood Phe, On treatment: 869.1 (424.1) μmol/L
Blood Phe; Subjects with classical PKU (N = 11), 20 mg/kg/day oral, listed as PTC923, 20 mg/kg/day
  Least squares mean (SE) change from baseline in blood Phe: −71.5 μmol/L and −71.5 (61.8) μmol/L
Blood Phe; Subjects with classical PKU (N = 11), 60 mg/kg period
  Mean (SD) blood Phe, At baseline: 947.2 (363.0) μmol/L
Blood Phe; [5]
  Mean (SD) blood Phe, Change: −146.0 (187.7) μmol/L
  Mean (SD) blood Phe, On treatment: 801.2 (396.5) μmol/L
Blood Phe; Subjects with classical PKU (N = 11), 60 mg/kg/day oral, listed as PTC923, 60 mg/kg/day
  Least squares mean (SE) change from baseline in blood Phe: −150.8 μmol/L and −150.8 (63.1) μmol/L
Blood Phe; classical PKU subjects
  Classical PKU subjects responding with a decrease in phenylalanine levels of at least 20%: about 45%
Blood Phe; cofactor responder analysis
  Number of patients showing blood Phe reduction of ≥20%, higher than with sapropterin: 50%
Blood Phe; day 7
  Number of subjects normalized (day 7 blood phenylalanine less than 120 micromole per liter) compared to sapropterin dihydrochloride: 3-4 times
Blood Phe; group of 12 responders (Phe reduction ≥20%, baseline ≥300 μmol/L), 20 mg/kg
  Least squares mean change from baseline in blood Phe: -234.8 µmol/L
Blood Phe; group of 12 responders (Phe reduction ≥20%, baseline ≥300 μmol/L), 60 mg/kg
  Least squares mean change from baseline in blood Phe: -322.2 µmol/L
Blood Phe; group of 12 responders, PTC923 60 mg/kg
  LSM difference in blood Phe change vs. sapropterin dihydrochloride: -182.5 µmol/L
Blood Phe; human, in vivo
  Subject-reported effects (in words): improvement in sleep quality and better focus
  Times more likely to reach normalized blood phenylalanine (less than 120 micromole per liter) compared to sapropterin dihydrochloride: 13.45 times
Blood Phe; non-classical subjects
  Non-classical subjects normalized (blood phenylalanine less than 120 micromole per liter): 46%
Blood Phe; on either dose of PTC923
  Proportion of patients achieving blood Phe <360 μmol/L: 54%
Blood Phe; overall responders
  More subjects responded than to sapropterin dihydrochloride: 60%
Blood Phe; [6]
  Absolute Phe reduction from baseline: -485.3 µmol/L
  Absolute mean percentage change in Phe from baseline: -72.5%
Blood Phe; sensitivity analysis population (excluding periods with baseline Phe <300 μmol/L), 20 mg/kg
  Least squares mean change from baseline in blood Phe: -167.8 µmol/L
Blood Phe; sensitivity analysis population (excluding periods with baseline Phe <300 μmol/L), 60 mg/kg
  Least squares mean change from baseline in blood Phe: -226.9 µmol/L
Blood Phe; sensitivity analysis population, PTC923 60 mg/kg
  LSM difference in blood Phe change vs. sapropterin dihydrochloride: -121.4 µmol/L
